{"source": "patent US10023562B2", "about": "“Heteroaryl substituted pyridyl compounds useful as kinase modulators” (BRISTOL-MYERS SQUIBB COMPANY, priority 2012, dated 2018)", "key": {"[1]": {"tested_on": "TLR2 induced IL-6 in peripheral blood mononuclear cells (PBMCs)", "assay": "PBMC TLR2 Induced IL-6 Assay", "type": "cell-based", "conditions": "10 μg/ml lipoteichoic acid for 5 hours, IL-6 by ELISA", "procedure": "PBMC TLR2 Induced IL-6 Assay Peripheral blood mononuclear cells (PBMCs) were isolated from human blood containing the anti-coagulant EDTA (2.5 mM) by centrifugation over a FICOLL® gradient. […] At the end of the culture, plates were centrifuged at 1800 rpm for 10 minutes to pellet the cells. Supernatants were harvested and analyzed for IL-6 levels by ELISA (BD Biosciences, San Jose, Calif.)."}, "IRAK4": {"target": "IRAK4 (Homo sapiens (Human), UniProt Q9NWZ3)", "sequence (Q9NWZ3 whole entry, species assumed)": "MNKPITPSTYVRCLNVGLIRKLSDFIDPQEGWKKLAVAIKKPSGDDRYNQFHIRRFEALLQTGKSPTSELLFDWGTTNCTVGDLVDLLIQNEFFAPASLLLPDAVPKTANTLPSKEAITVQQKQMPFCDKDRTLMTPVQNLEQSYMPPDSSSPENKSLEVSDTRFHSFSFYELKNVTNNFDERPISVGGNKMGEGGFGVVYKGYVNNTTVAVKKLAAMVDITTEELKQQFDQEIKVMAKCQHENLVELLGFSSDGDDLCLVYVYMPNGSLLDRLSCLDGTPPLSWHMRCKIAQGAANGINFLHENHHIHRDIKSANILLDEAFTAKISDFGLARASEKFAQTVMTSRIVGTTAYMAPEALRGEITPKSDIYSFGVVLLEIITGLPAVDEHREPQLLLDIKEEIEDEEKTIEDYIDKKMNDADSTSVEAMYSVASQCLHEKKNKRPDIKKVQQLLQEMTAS", "assay": "IRAK4 Inhibition Assay", "type": "biochemical", "conditions": "ATP 500 μM; IRAK4 0.6 nM; 60 min at room temperature", "procedure": "IRAK4 Inhibition Assay The assays were performed in U-bottom 384-well plates. […] The reaction was initiated by the combination of IRAK4 with substrates and test compounds. The reaction mixture was incubated at room temperature for 60 min. and terminated by adding 45 μL of 35 mM EDTA to each sample. The reaction mixture was analyzed on the Caliper LABCHIP® 3000 (Caliper, Hopkinton, Mass.) by electrophoretic separation of the fluorescent substrate and phosphorylated product."}, "[2]": {"conditions": "Homo sapiens, PBMC, 5 h, values marked * are EC50, read-out: Cell EC50 (values marked *)"}, "[3]": {"conditions": "human PBMC, values marked * are EC50, read-out: Cell EC50 (values marked *)"}}, "note": "pEC50, pIC50: −log10 of the molar value. Where two headings read alike, the source gives them in different places.", "data": [{"smiles": "CC(C)Nc1cc(Nc2ncc(Cl)cc2Cl)ncc1C(=O)NC[C@@H](F)C(C)(C)O", "note": "[Example 84]", "values": [{"measurement": "pEC50", "setting": "[1]; [2]", "result": 6.86}, {"measurement": "pIC50", "setting": "IRAK4", "result": 8.82}]}, {"smiles": "CC(C)(O)[C@H](F)CNC(=O)c1cnc(Nc2ncc(C#N)cc2F)cc1NC12CC3CC(CC(C3)C1)C2", "note": "[Example 119]", "values": [{"measurement": "pEC50", "setting": "[1]; [2]", "result": 6.13}]}, {"smiles": "CC(C)Nc1cc(Nc2ncc(C#N)cc2F)ncc1C(=O)NCCc1ccc(S(N)(=O)=O)cc1", "note": "[Example 121]", "values": [{"measurement": "pEC50", "setting": "[1]; [2]", "result": 7.31}]}, {"smiles": "CC(C)(O)[C@H](F)CNC(=O)c1cnc(Nc2ncc(C#N)cc2F)cc1Nc1cccc(CO)c1", "note": "[Example 122]", "values": [{"measurement": "pEC50", "setting": "[1]; [2]", "result": 7.25}]}, {"smiles": "CC(C)(O)[C@H](F)CNC(=O)c1cnc(Nc2ncc(Cl)cc2F)cc1NC1CC1", "note": "[Example 124]", "values": [{"measurement": "pEC50", "setting": "[1]; [2]", "result": 7.01}]}, {"smiles": "CC(C)(O)[C@H](F)CNC(=O)c1cnc(Nc2ncc(C#N)cc2F)cc1Nc1cccc(O)c1", "note": "[Example 125]", "values": [{"measurement": "pEC50", "setting": "[1]; [2]", "result": 7.07}]}, {"smiles": "CC(C)(O)[C@H](F)CNC(=O)c1cnc(Nc2ncc(C#N)cc2F)cc1NCC(F)(F)C(C)(C)O", "note": "[Example 126]", "values": [{"measurement": "pEC50", "setting": "[1]; [2]", "result": 7.08}]}, {"smiles": "CC(C)Nc1cc(Nc2ncc(C#N)cc2F)ncc1C(=O)NCCCOC(C)(C)C", "note": "[Example 127]", "values": [{"measurement": "pEC50", "setting": "[1]; [2]", "result": 6.60}]}, {"smiles": "CC(C)(O)[C@H](F)CNC(=O)c1cnc(Nc2ncc(C#N)cc2F)cc1Nc1cccc(S(N)(=O)=O)c1", "note": "[Example 128]", "values": [{"measurement": "pEC50", "setting": "[1]; [2]", "result": 6.65}]}, {"smiles": "Cc1cnc(Nc2cc(NC(C)C)c(C(=O)NC[C@@H](F)C(C)(C)O)cn2)c(F)c1", "note": "[Example 129]", "values": [{"measurement": "pEC50", "setting": "[1]; [3]", "result": 6.40}]}, {"smiles": "COc1cccc(Nc2cc(Nc3ncc(C#N)cc3F)ncc2C(=O)NC[C@@H](F)C(C)(C)O)c1", "note": "[Example 130]", "values": [{"measurement": "pEC50", "setting": "[1]; [2]", "result": 7.05}]}, {"smiles": "CC(C)Nc1cc(Nc2ccnc(N)n2)ncc1C(=O)NC[C@@H](F)C(C)(C)O", "note": "[Example 131]", "values": [{"measurement": "pEC50", "setting": "[1]; [2]", "result": 6.86}]}, {"smiles": "CC(C)Nc1cc(Nc2ncncc2N)ncc1C(=O)NC[C@@H](F)C(C)(C)O", "note": "[Example 132]", "values": [{"measurement": "pEC50", "setting": "[1]; [2]", "result": 6.06}]}, {"smiles": "CC(C)(O)[C@H](F)CNC(=O)c1cnc(Nc2ncc(C#N)cc2F)cc1NC12CCC(O)(CC1)C2", "note": "[Example 133]", "values": [{"measurement": "pEC50", "setting": "[1]; [2]", "result": 7.07}]}, {"smiles": "CC(C)(O)[C@H](F)CNC(=O)c1cnc(Nc2ncc(C#N)cc2F)cc1Nc1cccc(NS(C)(=O)=O)c1", "note": "[Example 134]", "values": [{"measurement": "pEC50", "setting": "[1]; [2]", "result": 6.69}]}, {"smiles": "CC(C)(O)[C@H](F)CNC(=O)c1cnc(Nc2ncc(C#N)cc2F)cc1Nc1cccc(C(N)=O)c1", "note": "[Example 135]", "values": [{"measurement": "pEC50", "setting": "[1]; [2]", "result": 6.89}]}, {"smiles": "CC(C)Nc1cc(Nc2ncc(C#N)c(N)n2)ncc1C(=O)NC[C@@H](F)C(C)(C)O", "note": "[Example 136]", "values": [{"measurement": "pEC50", "setting": "[1]; [2]", "result": 7.20}]}, {"smiles": "CC(C)Nc1cc(Nc2ncc(C#N)cc2F)ncc1C(=O)N[C@H]1CC[C@H](C(C)(C)O)CC1", "note": "[Example 137]", "values": [{"measurement": "pEC50", "setting": "[1]; [2]", "result": 7.14}]}, {"smiles": "CCCNc1cc(Nc2ncc(C#N)cc2Cl)ncc1C(=O)NC[C@@H](F)C(C)(C)O", "note": "[Example 138]", "values": [{"measurement": "pEC50", "setting": "[1]; [2]", "result": 6.97}]}, {"smiles": "CCCNc1cc(Nc2ncc(C#N)cc2F)ncc1C(=O)NC[C@@H](F)C(C)(C)O", "note": "[Example 139]", "values": [{"measurement": "pEC50", "setting": "[1]; [2]", "result": 6.94}]}, {"smiles": "CC(C)CCNc1cc(Nc2ncc(C#N)cc2Cl)ncc1C(=O)NC[C@@H](F)C(C)(C)O", "note": "[Example 140]", "values": [{"measurement": "pEC50", "setting": "[1]; [2]", "result": 6.62}]}, {"smiles": "CC(C)CCNc1cc(Nc2ncc(C#N)cc2F)ncc1C(=O)NC[C@@H](F)C(C)(C)O", "note": "[Example 141]", "values": [{"measurement": "pEC50", "setting": "[1]; [2]", "result": 6.39}]}, {"smiles": "CC(C)(O)[C@H](F)CNC(=O)c1cnc(Nc2ncc(C#N)cc2F)cc1Nc1ccc(C(N)=O)cc1", "note": "[Example 142]", "values": [{"measurement": "pEC50", "setting": "[1]; [2]", "result": 7.03}]}, {"smiles": "CC(C)(O)[C@H](F)CNC(=O)c1cnc(Nc2ncc(C#N)cc2Cl)cc1Nc1cccc(C(N)=O)c1", "note": "[Example 143]", "values": [{"measurement": "pEC50", "setting": "[1]; [2]", "result": 6.90}]}, {"smiles": "Cn1nnnc1-c1cccc(Nc2cc(Nc3ncc(C#N)cc3Cl)ncc2C(=O)NC[C@@H](F)C(C)(C)O)c1", "note": "[Example 146]", "values": [{"measurement": "pEC50", "setting": "[1]; [2]", "result": 6.29}]}, {"smiles": "Cn1nnnc1-c1ccc(Nc2cc(Nc3ncc(C#N)cn3)ncc2C(=O)NC[C@@H](F)C(C)(C)O)cc1", "note": "[Example 147]", "values": [{"measurement": "pEC50", "setting": "[1]; [2]", "result": 6.36}]}, {"smiles": "Cn1nnnc1-c1ccc(Nc2cc(Nc3ncc(C#N)cc3Cl)ncc2C(=O)NC[C@@H](F)C(C)(C)O)cc1", "note": "[Example 148]", "values": [{"measurement": "pEC50", "setting": "[1]; [2]", "result": 6.95}]}, {"smiles": "CS(=O)(=O)[C@H]1CC[C@H](NC(=O)c2cnc(Nc3ncc(C#N)cc3Cl)cc2NC2CCOCC2)CC1", "note": "[Example 149]", "values": [{"measurement": "pEC50", "setting": "[1]; [2]", "result": 6.71}]}, {"smiles": "CC(C)(O)[C@H](F)CNC(=O)c1cnc(Nc2ncc(C#N)cc2Cl)cc1N[C@H]1CC[C@](C)(O)CC1", "note": "[Example 150]", "values": [{"measurement": "pEC50", "setting": "[1]; [2]", "result": 7.21}]}, {"smiles": "CS(=O)(=O)[C@H]1CC[C@H](NC(=O)c2cnc(Nc3ncc(C#N)cc3Cl)cc2NC2CC2)CC1", "note": "[Example 151]", "values": [{"measurement": "pEC50", "setting": "[1]; [2]", "result": 6.73}]}, {"smiles": "CC(C)(O)[C@H](F)CNC(=O)c1cnc(Nc2ncc(C#N)cc2Cl)cc1N[C@H]1CC[C@@](C)(O)CC1", "note": "[Example 152]", "values": [{"measurement": "pEC50", "setting": "[1]; [2]", "result": 6.59}]}, {"smiles": "CC(C)(O)[C@H](F)CNC(=O)c1cnc(Nc2ncc(C#N)cc2Cl)cc1Nc1ccc2ncsc2c1", "note": "[Example 153]", "values": [{"measurement": "pEC50", "setting": "[1]; [2]", "result": 6.36}]}, {"smiles": "CC(C)(O)[C@H](F)CNC(=O)c1cnc(Nc2ncc(C#N)c(N)n2)cc1NC1CC1", "note": "[Example 154]", "values": [{"measurement": "pEC50", "setting": "[1]; [2]", "result": 6.28}]}, {"smiles": "CC(C)CNc1cc(Nc2ncc(C#N)cc2Cl)ncc1C(=O)NC[C@@H](F)C(C)(C)O", "note": "[Example 155]", "values": [{"measurement": "pEC50", "setting": "[1]; [2]", "result": 6.51}]}, {"smiles": "CC(C)Nc1cc(Nc2ncc(C#N)cc2Cl)ncc1C(=O)NC[C@H](F)C(C)(C)O", "note": "[Example 156]", "values": [{"measurement": "pEC50", "setting": "[1]; [2]", "result": 6.91}]}, {"smiles": "CS(=O)(=O)[C@H]1CC[C@H](NC(=O)c2cnc(Nc3ncc(C#N)cc3F)cc2Nc2cccc(C(N)=O)c2)CC1", "note": "[Example 161]", "values": [{"measurement": "pEC50", "setting": "[1]; [2]", "result": 6.52}]}, {"smiles": "CC(C)(O)[C@H](F)CNC(=O)c1cnc(Nc2ncc(C#N)cc2Cl)cc1Nc1cccc(C#N)c1", "note": "[Example 162]", "values": [{"measurement": "pEC50", "setting": "[1]; [2]", "result": 6.48}]}, {"smiles": "CC(Nc1cc(Nc2ncc(C#N)cn2)ncc1C(=O)NC[C@@H](F)C(C)(C)O)C1CC1", "note": "(some centres unmarked) [Example 163]", "values": [{"measurement": "pEC50", "setting": "[1]; [2]", "result": 6.34}]}, {"smiles": "CC(C)(O)[C@H](F)CNC(=O)c1cnc(Nc2ncc(C#N)cc2F)cc1NC1COC1", "note": "[Example 164]", "values": [{"measurement": "pEC50", "setting": "[1]; [3]", "result": 6.76}]}, {"smiles": "COC(=O)N[C@H]1CC[C@H](NC(=O)c2cnc(Nc3ncc(C#N)cc3F)cc2NC(C)C)CC1", "note": "[Example 165]", "values": [{"measurement": "pEC50", "setting": "[1]; [2]", "result": 6.55}]}, {"smiles": "CC(C)Nc1cc(Nc2ncc(C#N)cc2F)ncc1C(=O)NC1CCC(O)(c2ccnn2C)CC1", "note": "(centres unmarked) [Example 166]", "values": [{"measurement": "pEC50", "setting": "[1]; [2]", "result": 6.69}]}, {"smiles": "CC(C)Nc1cc(Nc2ncc(C#N)cc2F)ncc1C(=O)NC1CCC(O)(c2nccs2)CC1", "note": "(centres unmarked) [Example 167]", "values": [{"measurement": "pEC50", "setting": "[1]; [2]", "result": 6.20}]}, {"smiles": "CC(C)(O)[C@H](F)CNC(=O)c1cnc(Nc2ncc(C#N)cc2Cl)cc1Nc1ccc(-n2cccn2)cc1", "note": "[Example 168]", "values": [{"measurement": "pEC50", "setting": "[1]; [2]", "result": 6.91}]}]}
